The record followed here is US9629848B2, “Compounds that modulate autoimmunity and methods of using the same” (The Regents of the University of Colorado, a body corporate, priority 2011, dated 2017).

For series [1], the system named is DQ8 restricted T cell receptor (TCR) transfectomas. As to the kind of experiment: Ex vivo biomarker assay in DQ8 humanized mice, duration and oral route.
Series [2] relates to isolated whole islets from an adult non-diabetic NOD mouse. As to the kind of experiment: TCR response to isolated whole islets. The class given is cell-based. The settings on record: islets containing beta cells. On the procedure: (§1) The ability of the small molecules to block endogenous insulin presentation was tested. Incubation of whole insulin with I-A^g^7 containing splenocytes activates 5KC cells (T cell hybridoma lacking endogenous TCRα and β chains) transduced with a 4-8 TCR. […] To document direct effects of these small molecules on inhibiting peptide binding to I-A^g^7, an I-A^g^7 protein construct was expressed in baculovirus with a linked peptide. The flexible linker contained a thrombin cleavage site, allowing for thrombin cleavage of the linker and release of the peptide.

In series [3] the test system is human T cell receptor recognizing insulin B:9-23 presented by human DQ8. As to the kind of experiment: Inhibition of human T cell receptor recognizing insulin B:9-23 presented by human DQ8. The format is cell-based. An excerpt: Using a TCR sequence obtained from a T cell line generated from the peripheral blood of a diabetic individual with DQ8 molecule, a TCR was identified that is DQ8 restricted and responds to the insulin B:9-23 peptide.
Molecules predicted to occupy pockets 1 and 9 of the human DQ8 peptide binding groove were identified using in silico molecular docking program. The top scoring compounds for each pocket were screened for their ability to inhibit anti-B:9-23 T cell responses. FIGS. 9A and 9B represent the results of the T cell stimulation assay for compounds occupying pocket 1 and pocket 9 of the human DQ8 peptide binding groove, respectively.

Series [4] relates to 5KC cells transduced with a 4-8 TCR. In words: Endogenous insulin presentation: whole insulin with I-A^g^7 splenocytes and 4-8 TCR transduced 5KC cells. The class given is cell-based, mouse. The procedure:
as §1

For series [5], the target named is DQ8 (Homo sapiens, UniProt P01909+P01920, A209T/A45G/C70Q/D89A/DUP78-78/E183D/E77G/F237L/G63E/H199R/I129T/K197E/L178F/L74F/L98V/Q57E/Q76R/S185I/S97I/T217I/T49S/V73L/Y58L). In words: Competitive binding assay B:9-23 to DQ8.
Series [6] concerns Anti-CD3 stimulation. In words: Anti-CD3 stimulation control in ex vivo biomarker assay. Also on record: species or system DQ8 humanized mice. As to conditions: mouse. The procedure: The IL-2 response from the TCR transfectomas using splenocytes harvested within 2 hours from TATD treated mice was abrogated compared to PBS treated controls (FIGS. 13A and 13B). Anti-CD3 stimulation was not inhibited in the presence of TATD.

Series [7] has as its system I-A^g^7 complexed to insulin peptides. In words: Tetramer staining, I-A^g^7 complexed to insulin peptides. The class given is cell-based, mouse. An excerpt:
(§2) This molecule inhibited the insulin presentation to T cells capable of causing diabetes in mice and T cells responding to insulin in humans. […] Specificity was shown by using the molecule to inhibit tetramer binding (I-A^g^7 complexed to insulin peptides) to T cells.

For series [8], the system named is clone 5 TCR transfectomas, insulin B:13-23 antigen. In words: Ex vivo biomarker assay in DQ8 humanized mice, clone 5 TCR transfectomas with insulin B:13-23. The procedure: (§3) TATD was further evaluated in humanized DQ8 mice. These mice are on a NOD background, I-A null, and contain transgenes for DQ8 and human CD4 (NOD, I-A^g^7 null, DQ8 transgene, Rag KO). TATD was used to develop a rapid ex vivo biomarker assay to monitor the effects of small molecules on antigen presentation in DQ8 humanized mice. To identify a biomarker, mice were treated in vivo with TATD (either by intraperitoneal injection or gastric gavage) and isolated splenocytes or peripheral blood mononuclear cells (PBMCs) were used to monitor antigen presentation to DQ8 restricted T cell receptor (TCR) transfectomas.
(§4) Using this biomarker assay, DQ8 humanized mice were treated with a single intraperitoneal dose of TATD (20 mg/kg) and then sacrificed 2 hours later. Splenocytes from treated mice were cultured with the insulin B:13-23 antigen in the presence of clone 5 TCR transfectomas, or deamidated α-gliadin in the presence of the 489 TCR transfectoma. No TATD was added in vitro to the stimulation assays. Control mice received IP injections of PBS (the vehicle in which TATD is dissolved).

In series [9] the test system is 489 TCR transfectoma, deamidated α-gliadin. In words: Ex vivo biomarker assay in DQ8 humanized mice, 489 TCR transfectoma with deamidated α-gliadin. The settings on record: pooled PBMCs from treated mice. The procedure:
as §3, §4

In series [10] the test system is I-A^g^7. In words: Soluble binding assay, B:9-23 peptide to empty I-A^g^7. As to conditions: dose dependent. Also on record: species or system mouse.
Series [11] deals with T cell response to the autoantigen, amino acids 9-23 in the B chain of insulin. As to the kind of experiment: Inhibition of T cell response to insulin B chain amino acids 9-23. The class given is cell-based, mouse.
Excerpt: as §2

For series [12], the target named is T1, I-A^b complexed to a 3K peptide (Mus musculus, UniProt P14434+P14483).
T1 sequence (P14434 24-218 limits assumed): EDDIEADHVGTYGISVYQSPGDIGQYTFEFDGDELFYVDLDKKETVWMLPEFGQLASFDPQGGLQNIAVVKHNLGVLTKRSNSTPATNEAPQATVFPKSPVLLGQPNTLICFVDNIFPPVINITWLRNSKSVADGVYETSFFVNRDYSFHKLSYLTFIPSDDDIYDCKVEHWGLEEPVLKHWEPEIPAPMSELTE
T1 sequence (P14483 28-226 limits assumed): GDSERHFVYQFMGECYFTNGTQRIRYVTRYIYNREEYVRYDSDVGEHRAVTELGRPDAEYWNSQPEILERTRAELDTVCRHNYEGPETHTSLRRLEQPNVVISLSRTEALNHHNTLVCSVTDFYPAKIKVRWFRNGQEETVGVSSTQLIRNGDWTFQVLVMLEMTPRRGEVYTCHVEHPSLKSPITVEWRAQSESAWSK
As to the kind of experiment: Tetramer staining, I-A^b complexed to a 3K peptide. As to conditions: specificity control. The class given is cell-based.

For series [13], the system named is NOD mice. As to the kind of experiment: Insulin autoantibody production and diabetes onset in NOD mice. The class given is in vivo, mouse. As to conditions: 20 mg/kg IP daily from 4 to 12 weeks of age. On the procedure:
To test the efficacy of this molecule in vivo, Jackson NOD mice were treated with TATD at a dose of 20 mg/kg IP daily starting at 4 weeks of age. Treatment ceased at 12 weeks of age. Insulin autoantibody (IAA) was measured before treatment at 8, 10, 12, 16, 20, and 24 weeks of age.

A word on the IC50: it is the midpoint of a concentration-inhibition curve. A higher IC50 goes with lower potency. For `C1CN2CN3CCN(CN1C3)C2` [TATD, 1,3,6,8-tetraazatricyclo (4.4.1.1(3,8)) dodecane], in series [1] (gastric gavage), the “Blocking IL-2 production from the TCR transfectomas” value is “effective at blocking IL-2 production” and the Oral absorption entry is recorded as “orally absorbed”. For the same compound, the “Duration of effects on antigen presentation” value in [1] (single dose) is given as 7 days. The “Inhibition of TCR response to whole islets” value in series [2] was “able to inhibit endogenous antigen presentation”. Further, in series [3], the “Concentration inhibiting antigen presentation by human DQ8 to T cells involved in type 1 diabetes” value is “low nanomolar”. The “Inhibition of endogenous antigen presentation of whole insulin by antigen presenting cells” value in [4] is given as “able to inhibit endogenous antigen presentation”. In addition, in series [5], the “Block of peptide binding to DQ8” value is given as “block peptide binding” and the IC50 was 4.5 pM. Also, in [6], the Anti-CD3 stimulation result is given as “not inhibited”. Also, the “Tetramer staining of T cells recognizing insulin B:9-23 presented by I-A^g^7” value in [7] is “inhibited tetramer staining”. Also, the “Clone 5 response to insulin B:13-23 presented by PBMCs” value in [8] (pooled PBMCs from treated mice) is given as “blocked”. The “IL-2 response of clone 5 TCR transfectomas, splenocytes” value in series [8] (single 20 mg/kg IP dose, splenocytes harvested within 2 hours, vs PBS controls) is “abrogated”. In addition, the “489 TCR transfectoma response to deamidated α-gliadin presented by PBMCs” value in series [9] is “the same response is seen”. The “Inhibition of B:9-23 peptide binding to I-A^g^7” value in [10] is “block peptide binding”. For the same compound, the “Concentration inhibiting T cell response to insulin B:9-23” value in series [11] is on record as “low nanomolar”. Besides, in [12], the “T cell staining with I-A^b / 3K peptide tetramer” value is reported as “did not alter T cell staining”. Further, the Diabetes onset entry in series [13] is “prevents diabetes onset”. The “Insulin autoantibody (IAA) formation” value in series [13] (IAA up to 24 weeks) is reported as “blocks IAA formation”.
